Drawing on PubChem BioAssay (NCI), this text covers TGI and GI50 for 16 compounds.

Molecules are shown by their SMILES. Several values for one entry are separate records, joined by “and”; a condition that tells them apart may be missing. Identical values can stand only once.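 Interpolation was linear, between the two tested concentrations surrounding the appropriate level; five concentrations were tested over 48 hours in 96-well plates. GI50 = concentration required for 50% inhibition of growth. Definition used: TGI = concentration required for complete inhibition of growth.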

Among the test systems are M14 melanoma; K-562 leukemia; HCT-116 colon; OVCAR-3 ovarian; MALME-3M melanoma; RPMI-8226 leukemia; CCRF-CEM leukemia; T-47D breast; LOX IMVI melanoma.
Common to all, as to assay: NCI-60 cell line screen, 48 h

Consider `Cc1cn(C2CC(N)C(C(=O)O)O2)c(=O)[nH]c1=O` (stereo not drawn), for which the TGI with M14 melanoma, with K-562 leukemia, in the assay with HCT-116 colon, with OVCAR-3 ovarian, in the assay on MALME-3M melanoma and with RPMI-8226 leukemia was over 100 µM throughout. Also, the TGI in the assay on CCRF-CEM leukemia was over 100 µM.
Regarding `O=C(c1ccccc1)c1sc2c(=O)c(C(=O)c3ccccc3)c(C(=O)c3ccccc3)sc2c(=O)c1C(=O)c1ccccc1`, the TGI with M14 melanoma, in the assay with T-47D breast, with K-562 leukemia, with HCT-116 colon, in the assay on OVCAR-3 ovarian and in the assay with MALME-3M melanoma was over 100 µM throughout. In addition, the TGI in the assay with LOX IMVI melanoma and in the assay with CCRF-CEM leukemia was over 100 µM throughout.
As for `Cc1ccc(S(=O)(=O)Oc2nc3ccccc3nc2N(S(=O)(=O)c2ccc(C)cc2)S(=O)(=O)c2ccc(C)cc2)cc1`, the TGI in the assay with M14 melanoma, in the assay on HCT-116 colon, in the assay on OVCAR-3 ovarian, in the assay on MALME-3M melanoma, in the assay on RPMI-8226 leukemia and in the assay on LOX IMVI melanoma was over 100 µM in each case. In the assay on CCRF-CEM leukemia, this compound returned a TGI of over 100 µM.
As to `C/C(=C\c1ccc(Cl)c(Cl)c1)[N+](=O)[O-]`, the GI50 was 1.57 µM in the assay with M14 melanoma; 0.731 µM in the assay on K-562 leukemia; 1.37 µM in the assay with HCT-116 colon; 1.61 µM in the assay on MALME-3M melanoma; 0.538 µM in the assay on RPMI-8226 leukemia; 1.19 µM in the assay with LOX IMVI melanoma. Also, the TGI in the assay on M14 melanoma was 3.13 µM and 3.16 µM; in the assay on HCT-116 colon it was 2.85 µM and 10.2 µM; in the assay on OVCAR-3 ovarian, 3.08 µM and 3.47 µM; with MALME-3M melanoma, 3.36 µM and 3.83 µM; with RPMI-8226 leukemia, 3.17 µM; in the assay with LOX IMVI melanoma it was 2.62 µM and 0.955 µM.
For `NNc1[nH]c(=S)[nH]c1C(N)=O`, the TGI in the assay with M14 melanoma, in the assay on T-47D breast, with HCT-116 colon, with OVCAR-3 ovarian, with MALME-3M melanoma and in the assay on RPMI-8226 leukemia was over 100 µM each time. In addition, the TGI in the assay with LOX IMVI melanoma and in the assay with CCRF-CEM leukemia was over 100 µM each time.
Consider `CCS(=O)(=O)CCn1cnc2c1c(=O)n(C)c(=O)n2C`, for which the TGI in the assay with M14 melanoma, in the assay on T-47D breast, in the assay on K-562 leukemia, with HCT-116 colon, in the assay with OVCAR-3 ovarian and with LOX IMVI melanoma was over 100 µM throughout. Moreover, the TGI with CCRF-CEM leukemia is over 100 µM.
As to `CN(C)C(=O)Oc1ccc(-c2cn3cc(NC(=O)c4ccccc4)ccc3n2)cc1`, the TGI in the assay on M14 melanoma, in the assay with T-47D breast, in the assay with K-562 leukemia, with HCT-116 colon, in the assay on OVCAR-3 ovarian and with RPMI-8226 leukemia was over 100 µM in each case. Moreover, the TGI in the assay on LOX IMVI melanoma and in the assay on CCRF-CEM leukemia was over 100 µM in each case.
With `COc1ccc(Cc2nccc3cc(OC)c(OC)cc23)cc1OC`, the TGI in the assay on M14 melanoma, in the assay on T-47D breast, with K-562 leukemia, with HCT-116 colon, with OVCAR-3 ovarian and with RPMI-8226 leukemia was over 100 µM in each case. Moreover, the TGI in the assay with LOX IMVI melanoma and with CCRF-CEM leukemia was over 100 µM throughout.
Regarding `C=C(Cl)C(=C)CCC(Cl)C(C)C` (stereo not drawn), the TGI in the assay with M14 melanoma, in the assay on K-562 leukemia, with HCT-116 colon, in the assay on OVCAR-3 ovarian, in the assay with MALME-3M melanoma and with RPMI-8226 leukemia was over 100 µM throughout. Moreover, the TGI in the assay on LOX IMVI melanoma and with CCRF-CEM leukemia was over 100 µM in each case.
In the case of `Nc1nc(Cl)c2nnn(CC3CCC(CO)C3)c2n1` (stereo not drawn), the TGI with M14 melanoma, in the assay on T-47D breast, in the assay on K-562 leukemia, in the assay with HCT-116 colon, in the assay with OVCAR-3 ovarian and in the assay on RPMI-8226 leukemia was over 100 µM each time. For the same compound, the TGI in the assay with LOX IMVI melanoma and with CCRF-CEM leukemia was over 100 µM throughout.
`O=C=NCCCCCCN1C(=O)N2C(c3ccccc3)N(CCCCCCN=C=O)C(=O)N2C1c1ccccc1` (stereo not drawn): the TGI with M14 melanoma, in the assay on K-562 leukemia, in the assay with HCT-116 colon, with OVCAR-3 ovarian, with MALME-3M melanoma and in the assay on RPMI-8226 leukemia was over 100 µM throughout. Besides, the TGI in the assay with LOX IMVI melanoma and with CCRF-CEM leukemia was over 100 µM each time.
Turning to `CC(C)NCCC(O)c1cc2ccccc2o1` (stereo not drawn), the TGI with M14 melanoma, with T-47D breast, in the assay with K-562 leukemia, in the assay on HCT-116 colon, in the assay with OVCAR-3 ovarian and in the assay with MALME-3M melanoma was over 100 µM in each case. For the same compound, the TGI in the assay with RPMI-8226 leukemia and in the assay on LOX IMVI melanoma was over 100 µM throughout.
On to `CCc1c(Cc2cc(C)cc(C)c2)n2c(nc1=O)SCC2CBr` (stereo not drawn), for which the TGI in the assay with M14 melanoma, in the assay on T-47D breast, in the assay with K-562 leukemia, with HCT-116 colon, in the assay with MALME-3M melanoma and in the assay with RPMI-8226 leukemia was over 50 µM throughout. Moreover, the TGI in the assay with LOX IMVI melanoma and in the assay on CCRF-CEM leukemia was over 50 µM each time.
Regarding `Clc1nc2n(c1/C=C/c1cccs1)CCS2`, the TGI in the assay with M14 melanoma was over 100 µM; in the assay with T-47D breast, 69.3 µM; in the assay on K-562 leukemia, over 100 µM; in the assay on HCT-116 colon, over 100 µM; in the assay with OVCAR-3 ovarian, 87.9 µM; with MALME-3M melanoma, over 100 µM. The TGI came to 48.7 µM in the assay with RPMI-8226 leukemia and 46.6 µM in the assay on CCRF-CEM leukemia.
Regarding `O=c1[nH]n(Cc2ccccn2)c2ccc([N+](=O)[O-])cc12`, the TGI with M14 melanoma, with K-562 leukemia, with HCT-116 colon, with OVCAR-3 ovarian, with MALME-3M melanoma and in the assay with RPMI-8226 leukemia was over 100 µM in each case. Also, the TGI with LOX IMVI melanoma and in the assay with CCRF-CEM leukemia was over 100 µM throughout.
In the case of `COC(=O)[C@@H]1C[C@@H]2c3ccccc3N(S(=O)(=O)c3ccccc3)[C@@H]2N1C(=O)OC`, the TGI in the assay with K-562 leukemia, with HCT-116 colon, in the assay on OVCAR-3 ovarian, in the assay on MALME-3M melanoma, in the assay with RPMI-8226 leukemia and in the assay on LOX IMVI melanoma was over 100 µM in each case. This compound registered a TGI in the assay on CCRF-CEM leukemia of over 100 µM.
